≈ marks a conversion by molar mass, not a printed value. Like-named read-outs stand apart in the source and are kept apart here.
Experiments:
influenza A (H5N1) = experiment: microbe, parasite or virus in culture; assay type: cell-based; settings: for EC50: Influenza A virus, H5N1, MDCK, read-out: EC50, 50% effective (virus-inhibitory) concentration; for Selectivity Index (CC50 divided by EC50): strain A(H5N1), MDCK cells
influenza B = experiment: microbe, parasite or virus in culture; assay type: cell-based; settings: strain B, MDCK cells; for EC50: Influenza B virus, CPE inhibition, neutral red, read-out: EC50, 50% effective (virus-inhibitory) concentration
HIV-1 (IIIB) = experiment: Inhibition of HIV-1 (IIIB) induced cytopathic effect in MT-4 cells, MTT; assay type: cell-based; settings: for EC50: MTT, 5 d, read-out: EC50, concentration achieving 50% protection of MT-4 cells against the cytopathic effect of HIV
in vitro = settings: dog
influenza A (H1N1) = experiment: microbe, parasite or virus in culture; assay type: cell-based; settings: strain A(H1N1), MDCK cells; for EC50: Influenza A virus, CPE inhibition, neutral red, read-out: EC50, 50% effective (virus-inhibitory) concentration
influenza A (H3N2) = experiment: microbe, parasite or virus in culture; assay type: cell-based; settings: for EC50: Influenza A virus, H3N2, MDCK, read-out: EC50, 50% effective (virus-inhibitory) concentration; for Selectivity Index (CC50 divided by EC50): strain A(H3N2), MDCK cells
[1] = Cytotoxicity against mock-infected MT-4 cells, MTT; assay type: cell-based; settings: human; mock-infected MT-4 cells, MTT; read-out: CC50, concentration required to reduce the viability of mock-infected MT-4 cells by 50%
Description: (§1) Compounds were tested for their inhibitory effects against replication of HIV-1 (IIIB) in MT-4 cells[1011]. The MT-4 cells were grown and maintained in RPMI 1640 DM medium supplemented with 10% (v/v) heat-inactivated fetal calf serum (FCS), 2 mM-glutamine, 0.1% sodium bicarbonate and 20 μg/ml gentamicin (culture medium). Inhibitory effect of test compounds on HIV-1 replications was monitored by inhibition of virus-induced cytopathic effect in MT-4 cells and was estimated by MTT assay. Briefly, 50 μl of HIV-1 (100-300 CCID50) were added to a flat-bottomed microtiter tray with 50 μl of medium containing various concentrations of compounds. MT-4 cells were added at a final concentration of 6×10^5 cells/ml. After 5 d of incubation at 37°, the number of viable cells were determined by the 3-(4,5-dimethylthiazol-2-yl)-2,5-diphenyl tetrazolium bromide (MTT) method. Cytotoxicity of test compounds against mock-infected MT-4 cells was also assessed by the MTT method. AntiHIV activity and cytotoxicity of standard AZT were also performed by a similar method in MT-4 cells.

mock-infected MT-4 cells = experiment: Cytotoxicity against mock-infected MT-4 cells, MTT; assay type: cell-based
Description: as §1

[2] = test system: influenza A and B viruses; experiment: microbe, parasite or virus in culture; assay type: cell-based; settings: MDCK, read-out: concentration inhibiting the replication of influenza A and B viruses
[3] = Human immunodeficiency virus 1, MT4, 120 h

## COc1c(N2CCN(CNc3ccc(S(=O)(=O)Nc4ncccn4)cc3)CC2)c(F)cc2c(=O)c(C(=O)O)cn(C3CC3)c12 [GF-SD]
Influenza A (H5N1)
  EC50: > 100 µg/mL
Influenza B
  EC50: 97 µg/mL (≈ 156 µM)
  Selectivity Index (CC50 divided by EC50): >1
HIV-1 (IIIB); [3]
  EC50: > 70.1 µM
In vitro
  CC50: > 100 µg/mL
Influenza A (H1N1)
  EC50: 34 µg/mL (≈ 54.5 µM)
  Selectivity Index (CC50 divided by EC50): >3
Influenza A (H3N2)
  EC50: 52 µg/mL (≈ 83.4 µM)
  Selectivity Index (CC50 divided by EC50): >1.9
[1]
  CC50 at 5 d: 70.1 µM

## Cc1cn([C@H]2C[C@H](N=[N+]=[N-])[C@@H](CO)O2)c(=O)[nH]c1=O [AZT, reference compound]
HIV-1 (IIIB)
  Max Prot: 106
  EC50: 0.0064 µM
mock-infected MT-4 cells; mock-infected MT-4 cells, MTT, read-out: CC50, concentration required to reduce the viability of mock-infected MT-4 cells by 50%
  CC50: 64.5 µM

## COc1c(N2CCN(CNc3ccc(S(N)(=O)=O)cc3)CC2)c(F)cc2c(=O)c(C(=O)O)cn(C3CC3)c12 [GF-SA]
Influenza A (H5N1)
  EC50: 32 µg/mL (≈ 58.7 µM)
  Selectivity Index (CC50 divided by EC50): >3
Influenza B
  EC50: 36 µg/mL (≈ 66 µM)
  Selectivity Index (CC50 divided by EC50): >3
HIV-1 (IIIB); [3]
  EC50: > 58.7 µM
In vitro
  CC50: > 100 µg/mL
Influenza A (H1N1)
  EC50: > 100 µg/mL
Influenza A (H3N2)
  EC50: > 100 µg/mL
[1]
  CC50 at 5 d: 58.7 µM

## CCn1cc(C(=O)O)c(=O)c2cc(F)c(N3CCN(CNc4ccc(S(N)(=O)=O)cc4)CC3)cc21 [NF-SA]
Influenza A (H5N1)
  EC50: > 100 µg/mL
Influenza B
  EC50: 80 µg/mL (≈ 159 µM)
  Selectivity Index (CC50 divided by EC50): >1.3
HIV-1 (IIIB); [3]
  EC50: > 75.5 µM
In vitro
  CC50: > 100 µg/mL
Influenza A (H1N1)
  EC50: > 100 µg/mL
Influenza A (H3N2)
  EC50: > 100 µg/mL
[1]
  CC50 at 5 d: 75.5 µM

## CCn1cc(C(=O)O)c(=O)c2cc(F)c(N3CCN(CNc4ccc(S(=O)(=O)Nc5nc(C)cc(C)n5)cc4)CC3)cc21 [NF-SDM]
HIV-1 (IIIB); [3]
  EC50: > 56.3 µM
[1]
  CC50 at 5 d: 56.3 µM

## NC(=O)c1ncn([C@@H]2O[C@H](CO)[C@@H](O)[C@H]2O)n1 [Ribavirin, ribavirin, reference compound]
Influenza A (H5N1)
  EC50: 4.3 µg/mL (≈ 17.6 µM)
  Selectivity Index (CC50 divided by EC50): >23
Influenza B
  EC50: 5.5 µg/mL (≈ 22.5 µM)
  Selectivity Index (CC50 divided by EC50): >18
In vitro
  CC50: > 100 µg/mL
[2]
  EC50: 3.7 to 5.9 µg/mL (≈ 15.2 to 24.2 µM)
Influenza A (H1N1)
  EC50: 3.7 µg/mL (≈ 15.2 µM)
  Selectivity Index (CC50 divided by EC50): >27
Influenza A (H3N2)
  EC50: 5.9 µg/mL (≈ 24.2 µM)
  Selectivity Index (CC50 divided by EC50): >17

## Cc1cc(C)nc(NS(=O)(=O)c2ccc(NCN3CCN(c4cc5c(cc4F)c(=O)c(C(=O)O)cn5C4CC4)CC3)cc2)n1 [CF-SDM]
Influenza A (H5N1)
  EC50: > 100 µg/mL
Influenza B
  EC50: 53 µg/mL (≈ 85.3 µM)
  Selectivity Index (CC50 divided by EC50): >2
HIV-1 (IIIB); [3]
  EC50: > 70.8 µM
In vitro
  CC50: > 100 µg/mL
Influenza A (H1N1)
  EC50: 18 µg/mL (≈ 29 µM)
  Selectivity Index (CC50 divided by EC50): >5.6
Influenza A (H3N2)
  EC50: 30 µg/mL (≈ 48.3 µM)
  Selectivity Index (CC50 divided by EC50): >3.3
[1]
  CC50 at 5 d: 70.8 µM

## CCn1cc(C(=O)O)c(=O)c2cc(F)c(N3CCN(CNc4ccc(S(=O)(=O)Nc5ncccn5)cc4)CC3)cc21 [NF-SD]
Influenza A (H5N1)
  EC50: > 32 µg/mL
Influenza B
  EC50: > 32 µg/mL
HIV-1 (IIIB); [3]
  EC50: > 66.8 µM
In vitro
  CC50 at 3 d: 32 µg/mL (≈ 55 µM)
Influenza A (H1N1)
  EC50: > 100 µg/mL
Influenza A (H3N2)
  EC50: > 100 µg/mL
[1]
  CC50 at 5 d: 66.8 µM

## O=C(O)c1cn(C2CC2)c2cc(N3CCN(CNc4ccc(S(=O)(=O)Nc5ncccn5)cc4)CC3)c(F)cc2c1=O [CF-SD]
Influenza A (H5N1)
  EC50: 33 µg/mL (≈ 55.6 µM)
  Selectivity Index (CC50 divided by EC50): >3
Influenza B
  EC50: 32 µg/mL (≈ 53.9 µM)
  Selectivity Index (CC50 divided by EC50): >3
HIV-1 (IIIB); [3]
  EC50: > 74.1 µM
In vitro
  CC50: > 100 µg/mL
Influenza A (H1N1)
  EC50: 16 µg/mL (≈ 27 µM)
  Selectivity Index (CC50 divided by EC50): >6.1
Influenza A (H3N2)
  EC50: 41 µg/mL (≈ 69.1 µM)
[1]
  CC50 at 5 d: 74.1 µM

## COc1c(N2CCN(CNc3ccc(S(=O)(=O)Nc4nc(C)cc(C)n4)cc3)CC2)c(F)cc2c(=O)c(C(=O)O)cn(C3CC3)c12 [GF-SDM]
Influenza A (H5N1)
  EC50: 19 µg/mL (≈ 29.2 µM)
  Selectivity Index (CC50 divided by EC50): >5
Influenza B
  EC50: 11 µg/mL (≈ 16.9 µM)
  Selectivity Index (CC50 divided by EC50): >9
HIV-1 (IIIB); [3]
  EC50: > 39.4 µM
In vitro
  CC50: > 100 µg/mL
Influenza A (H1N1)
  EC50: 33 µg/mL (≈ 50.6 µM)
  Selectivity Index (CC50 divided by EC50): >3.1
Influenza A (H3N2)
  EC50: 38 µg/mL (≈ 58.3 µM)
  Selectivity Index (CC50 divided by EC50): >2.6
mock-infected MT-4 cells; MT-4 cells
  cytostatic activity in MT-4 cells (in words): marked cytostatic activity
[1]
  CC50 at 5 d: 39.4 µM
